Experimental data reported in paper PMC8777946, “New Analogs of Polyamine Toxins from Spiders and Wasps: Liquid Phase Fragment Synthesis and Evaluation of Antiproliferative Activity” (Molecules, 2022).
Like-named read-outs stand apart in the source and are kept apart here.

Assays:
[1] = tested on: MDA-MB-231 breast cancer cells; test: Antiproliferative activity on MDA-MB-231 breast cancer cells (24 h, cell count or MTT); format: cell-based; conditions: for IC50: read-out: IC50 MDA-MB-231; for times less cytotoxic to the MDA-MB-231 cells than the MCF-7 cells: ratio of IC50 values
Description: (§1) The antiproliferative activity of the synthesized compounds was evaluated using MCF-7 and ΜDA-MB-231 breast carcinoma cells. MCF-7 cells are characterized by epithelial morphology, low metastatic potential, and low aggressiveness, and are estrogen receptor alpha (ERα)-positive, whereas MDA-MB-231cells are characterized by mesenchymal morphology, high metastatic potential, and high aggressiveness, and are ERβ-positive. The cells were treated for 24 h with compounds 1–10 in a range of concentrations, from 0 to 200 or 400 μM. In addition, the cells were treated with acid 21 alone and an equimolar mixture of acid 21 and Spd (the PA substructure of conjugate 2), to determine the effect of conjugation on the antiproliferative activity. The estimated IC50 values for these compounds are provided in Table 1 (see also Supplementary Material, Table S1). For the sake of comparison, the ΙC50 values of PATs HO-416b and Agel 416, determined previously, are included in Table 1. Calculated LogD values at pH 7.4, the physiological pH of blood serum, using ChemAxon’s Chemicalize platform are also included in Table 1.
(§2) MCF-7 and MDA-MB-231 breast cancer cell lines were purchased from the American Type Culture Collection (ATCC). All cells were routinely cultured in a humidified 95% air/5% CO2 incubator at 37 °C in complete medium Dulbecco’s Modified Eagle’s Medium (DMEM) supplemented with 10% (v/v) fetal bovine serum (FBS) 1.0 mM sodium pyruvate, 2 mM l-glutamine, and 100 IU/mL penicillin. The synthesized compounds were dissolved in ddH2O (or DMSO for compound […] and the equimolar mixture of compounds […] and Spd) at a final concentration of 10 mM and further dilutions were conducted with culture medium.
(§3) MCF-7 and ΜDA-MB-231 breast cancer cells were seeded in 12-well plates and were allowed to grow up to 60–70% confluence. After renewing the culture medium, cancer cells were treated for 24 h in serum-containing culture medium with compounds 1–10 in a range of concentrations, from 0 to 200 or 400 μM. In addition, cells were treated with acid 21 alone and an equimolar mixture of acid 21 and Spd in order to determine the effect of conjugation on the antiproliferative activity. Then, the surviving breast cancer cells were measured, either manually (for compounds Agel 416, HO-416b, 1-3, 6-7) or by measuring the absorbance following an MTT assay (for compounds 4-5, 8-10, 21 and 21+Spd), as described below in detail. The percentage of live cells was plotted against the log values of compound concentrations, and a non-linear fit plot was used to estimate the IC50 value for each compound.

[2] = tested on: MCF-7 breast cancer cells; test: Antiproliferative activity on MCF-7 breast cancer cells (24 h, cell count or MTT); format: cell-based; conditions: for IC50: read-out: IC50 MCF-7
Description: as §1, §2, §3

[3] = tested on: MCF-7 breast cancer cells; conditions: 24 h treatment; ± SD; reference PATs, determined previously; cited from earlier work
[4] = tested on: MDA-MB-231 breast cancer cells; conditions: 24 h treatment; ± SD; reference PATs, determined previously; cited from earlier work
[5] = tested on: MCF-12A normal epithelial mammary cells; test: cells; format: cell-based; conditions: for IC50: Homo sapiens, MCF-12A, 24 h incubation, serum-free medium, MTT; for selectivity index (SI) for the MCF-7 cells: IC50 MCF-12A versus IC50 MCF-7; for selectivity index (SI) for the MDA-MB-231 cells: IC50 MCF-12A versus IC50 MDA-MB-231
Description: (§4) The IC50 values of the tested compounds are summarized in Table 2 (see also Supplementary Material, Table S2).
(§5) […]. The chemical compounds were reconstituted in DMSO.
(§6) For the MTT [3-(4,5-dimethylthiazol-2-yl)-2,5-diphenyltetrazolium bromide] assay, cells were seeded in a 96-well plate (26.000 cells/well) for 48 h. Then, after overnight starvation through serum deprivation, cells were incubated for 24 h, with the chemical compounds at 100, 10, 1, and 0.1 μM concentrations in the MCF-12A culture medium deprived of serum. Next, MTT (5 mg/mL in sterile PBS) was added in an amount of 10% in the culture media volume for 4-h cell incubation at 37 °C. Subsequently, an MTT solubilization solution was added, in an amount equal to the original culture media volume (100 μL/well), and the formazan crystals were dissolved through thorough pipetting. The spectrophotometric measure of cells’ viability was performed in a Tecan (SPARK) spectrophotometer at an absorbance wavelength of 570 nm. Incubation with H2O2 was established as cytotoxicity positive control. The percentage of viability for each sample was calculated with respect to cells incubated with MCF-12A culture media (without serum) containing 2% DMSO (negative cytotoxicity control).

in vitro = format: cell-based; conditions: human, 24 h, MTT, read-out: % viability of MCF 12A
Description: as §4, §5, §6

[6] = Homo sapiens, MDA-MB-231, 24 h, 24 h treatment, serum-containing medium, manual count (1-3, 6-7) or MTT (4-5, 8-10, 21, 21+Spd), ± SD, tested as trifluoroacetate salts
[7] = Homo sapiens, MCF7, 24 h, 24 h treatment, serum-containing medium, manual count (1-3, 6-7) or MTT (4-5, 8-10, 21, 21+Spd), ± SD, tested as trifluoroacetate salts
[8] = 24 h treatment, serum-containing medium, manual count (1-3, 6-7) or MTT (4-5, 8-10, 21, 21+Spd), ± SD, tested as trifluoroacetate salts

O=C(O)Cc1c[nH]c2ccccc12 [Compound 21, (indol-3-yl)acetic acid, reference compound]
IC50 [1, 6]: 262 ± 42 µM
IC50 [2, 7]: 366 ± 73 µM

C#CC[C@H](NC(=O)c1ccc(C2(C(F)(F)F)N=N2)cc1)C(=O)NCCCNCCCNCCCCN [Compound 10]
IC50 [1, 6]: > 200 µM
IC50 [2, 7]: 2.81 ± 1.64 µM

CCCC(=O)N[C@H](C(=O)NCCCCNCCCNCCCN)[C@@H](C)O [Compound 4]
IC50 [1, 6]: > 400 µM
IC50 [2, 7]: > 400 µM

CCCC(=O)N[C@H](C(=O)NCCCNCCCCNCCCN)[C@@H](C)O [Compound 5]
IC50 [1, 6]: > 400 µM
IC50 [2, 7]: > 400 µM

NCCCNCCCCNC(=O)Cc1c[nH]c2ccccc12 [Compound 2]
IC50 [1, 6]: 12.6 ± 0.57 µM
times less active than HO-416b ([1]; MDA-MB-231 cells): 4 times
times more active than the mere combination of 21 and Spd ([1]; MDA-MB-231 cells): ~22 times
IC50 [2, 7]: 3.15 ± 0.25 µM
times less active than HO-416b ([2]; MCF-7 cells): 35 times
times more active than the mere combination of 21 and Spd ([2]; MCF-7 cells): ~42 times

NCCCNCCCCNCCCNC(=O)Cc1c[nH]c2ccccc12 [Compound 1]
IC50 [1, 6]: > 200 µM
IC50 [2, 7]: > 200 µM

CCCC(=O)N[C@@H](Cc1ccc(O)cc1)C(=O)NCCCCNCCCCNCCCCN [Compound 7]
IC50 [1, 6]: > 400 µM
IC50 [2, 7]: > 400 µM

NCCCNCCCNCCCNCCCCNC(=O)Cc1c[nH]c2ccccc12 [HO-416b]
times less cytotoxic to the MDA-MB-231 cells than the MCF-7 cells [1]: ~44 times
IC50 [3]: 0.09 ± 0.012 µM
IC50 [4]: 3.98 ± 0.064 µM
times more cytotoxic than Agel 416 ([2]; MCF-7 cells): ~6 times
IC50 [5]: 97.2 µM
selectivity index (SI) for the MCF-7 cells [5]: ~1080
selectivity index (SI) for the MDA-MB-231 cells [5]: ~24
times more cytotoxic than Agel 416 ([5]; MCF-12A cells): ~1.9 times
viability (in vitro; 0.1 μΜ): 92.5%
viability (in vitro; 1 μΜ): 89.7%
viability (in vitro; 10 μΜ): 77.5%
viability (in vitro; 100 μΜ): 50.8%

C#CC[C@H](NC(=O)c1ccc(C2(C(F)(F)F)N=N2)cc1)C(=O)NCCCCNCCCNCCCN [Compound 9]
IC50 [1, 6]: > 200 µM
IC50 [2, 7]: 2.63 ± 1.58 µM

CCCC(=O)N[C@@H](Cc1ccc(O)cc1)C(=O)NCCCNCCCCNCCCN [Compound 6]
IC50 ([1]; Homo sapiens, MDA-MB-231, 24 h): > 400 µM
IC50 ([2]; Homo sapiens, MCF7, 24 h): > 400 µM

NCCCNCCCCNCCCNCCCNC(=O)Cc1c[nH]c2ccccc12 [Agel 416]
times less cytotoxic to the MDA-MB-231 cells than the MCF-7 cells [1]: 6 times
IC50 [3]: 0.55 ± 0.02 µM
IC50 [4]: 3.31 ± 0.08 µM
IC50 [5]: 184 µM
selectivity index (SI) for the MCF-7 cells [5]: ~335
selectivity index (SI) for the MDA-MB-231 cells [5]: ~56
viability (in vitro; 0.1 μΜ): 95.4%
viability (in vitro; 1 μΜ): 84.3%
viability (in vitro; 10 μΜ): 63.5%
viability (in vitro; 100 μΜ): 69%

CCCC(=O)N[C@@H](Cc1ccc(O)cc1)C(=O)NCCCCNCCCNCCCNCCCN [Compound 8]
IC50 [1, 6]: > 400 µM
IC50 [2, 7]: > 400 µM

NCCCCNC(=O)Cc1c[nH]c2ccccc12 [Compound 3]
IC50 [1, 8]: 107 µM
IC50 [1, 6]: 170 µM
IC50 [2, 8]: 272 ± 11.2 µM
IC50 [2, 7]: 272 µM
